Experimental data published in ChEMBL document CHEMBL1139117, “Novel 4-(6,7-dimethoxy-1,2,3,4-tetrahydroisoquinolin-2-yl)methylbenzofuran derivatives as selective alpha(2C)-adrenergic receptor antagonists” (Bioorg Med Chem Lett, 2007).
Activity calls are given as the source filed them. The rule behind the calls is not given here.

Experiments:
[1] = molecular target: T1, Alpha-2A adrenergic receptor (Homo sapiens) (UniProt P08913); assay: Displacement of [3H]MK912 from adrenergic alpha2A receptor in HT29 cells at 0.1 uM; format: cell-based; settings: HT-29
T1 sequence (whole entry): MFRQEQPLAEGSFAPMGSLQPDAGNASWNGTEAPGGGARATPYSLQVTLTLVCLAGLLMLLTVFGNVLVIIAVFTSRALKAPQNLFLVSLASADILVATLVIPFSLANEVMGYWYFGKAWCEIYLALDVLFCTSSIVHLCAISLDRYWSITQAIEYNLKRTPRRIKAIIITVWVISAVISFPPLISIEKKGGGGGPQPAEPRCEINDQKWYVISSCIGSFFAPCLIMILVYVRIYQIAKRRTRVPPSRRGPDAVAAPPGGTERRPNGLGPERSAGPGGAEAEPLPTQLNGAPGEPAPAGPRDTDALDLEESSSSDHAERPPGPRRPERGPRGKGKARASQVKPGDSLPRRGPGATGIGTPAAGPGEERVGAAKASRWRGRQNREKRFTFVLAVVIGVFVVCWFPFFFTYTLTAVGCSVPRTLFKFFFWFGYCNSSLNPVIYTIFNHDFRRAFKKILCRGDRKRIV

[2] = molecular target: T2, Alpha-2C adrenergic receptor (Homo sapiens) (UniProt P18825); assay: Displacement of [3H]MK912 from adrenergic alpha-2C receptor in HepG2 cells at 0.1 uM; format: cell-based
T2 sequence (whole entry): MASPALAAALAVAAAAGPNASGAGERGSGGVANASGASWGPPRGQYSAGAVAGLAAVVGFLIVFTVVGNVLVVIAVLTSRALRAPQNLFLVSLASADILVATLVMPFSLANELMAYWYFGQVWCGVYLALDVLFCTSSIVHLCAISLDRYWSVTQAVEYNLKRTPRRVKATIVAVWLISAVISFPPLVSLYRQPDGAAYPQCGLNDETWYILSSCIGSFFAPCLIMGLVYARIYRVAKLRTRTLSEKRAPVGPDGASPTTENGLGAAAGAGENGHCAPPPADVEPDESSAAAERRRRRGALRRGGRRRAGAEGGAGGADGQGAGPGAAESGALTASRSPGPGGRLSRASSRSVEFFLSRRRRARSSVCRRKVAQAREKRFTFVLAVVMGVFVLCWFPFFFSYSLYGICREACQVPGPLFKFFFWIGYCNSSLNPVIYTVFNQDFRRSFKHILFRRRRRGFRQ

[3] = molecular target: T3, Alpha-2B adrenergic receptor (Homo sapiens) (UniProt P18089); assay: Displacement of [3H]MK912 from adrenergic alpha-2B receptor expressed in COS7 cells at 0.1 uM; format: cell-based; settings: COS-7
T3 sequence (whole entry): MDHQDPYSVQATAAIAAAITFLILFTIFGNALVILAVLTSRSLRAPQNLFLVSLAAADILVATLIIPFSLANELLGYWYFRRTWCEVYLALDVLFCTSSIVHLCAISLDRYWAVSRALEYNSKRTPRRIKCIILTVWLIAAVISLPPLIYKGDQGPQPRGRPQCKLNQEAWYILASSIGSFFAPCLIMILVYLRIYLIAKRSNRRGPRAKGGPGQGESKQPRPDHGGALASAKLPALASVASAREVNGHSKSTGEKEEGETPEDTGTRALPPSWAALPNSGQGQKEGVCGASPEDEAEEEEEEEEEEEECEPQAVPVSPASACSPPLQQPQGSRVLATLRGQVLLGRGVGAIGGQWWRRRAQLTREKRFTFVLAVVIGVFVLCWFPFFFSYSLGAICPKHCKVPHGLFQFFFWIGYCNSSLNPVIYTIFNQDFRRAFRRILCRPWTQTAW

[4] = molecular target: T4, Alpha-2A adrenergic receptor (Homo sapiens, UniProt P08913); assay: Displacement of [3H]MK-912 from adrenergic alpha2A receptor in HT29 cells; format: cell-based, HT-29
T4 sequence (P08913 whole entry): T1 sequence (whole entry)

[5] = molecular target: T5, Alpha-2B adrenergic receptor (Homo sapiens, UniProt P18089); assay: Displacement of [3H]MK912 from adrenergic alpha-2B receptor expressed in COS7 cells; format: cell-based, COS-7
T5 sequence (P18089 whole entry): T3 sequence (whole entry)

[6] = molecular target: T6, Alpha-2C adrenergic receptor (Homo sapiens, UniProt P18825); assay: Displacement of [3H]MK912 from adrenergic Alpha-2C receptor in HepG2 cells; format: cell-based
T6 sequence (P18825 whole entry): T2 sequence (whole entry)

[7] = AUC in mormoset at 2.5 mg/kg; format: ADME, organism-based, Callithrix jacchus; design: dose 2.5 mg/kg; settings: marmoset, plasma
Callithrix jacchus [8] = assay: Activity against […] induced dyskinetic activity in marmoset at 2.5 mg/kg, po; format: functional, organism-based; design: dose 2.5 mg/kg
Callithrix jacchus [9] = assay: Activity against […] induced dyskinetic activity in marmoset at 30 mg/kg, po; format: functional, organism-based; design: dose 30 mg/kg

`COc1cc2c(cc1OC)CN(Cc1ccc3cc(C(=O)NCCN(C)C)oc3c1OC)CC2` showed an inhibition [1] of 20%, an inhibition [2] of 65% and an inhibition [3] of 15%.

`COc1cc2c(cc1OC)CN(Cc1ccc(OC)c3oc(C(=O)NCC(C)(C)N)cc13)CC2` showed a Ki [4] of 141 nM, a Ki [5] of 1540 nM and a Ki [6] of 4.2 nM.

In the case of `COc1cc2c(cc1OC)CN(Cc1ccc(OC)c3oc(-c4ccccn4)cc13)CC2`, the Ki [4] is reported as 135 nM, the Ki [5] is reported as 330 nM and the Ki [6] is reported as 9.6 nM.

Work on `COc1cc2c(cc1OC)CN(Cc1ccc(OC)c3oc(-c4ccccc4F)cc13)CC2` yielded a Ki [4] of 857 nM, a Ki [5] of 299 nM and a Ki [6] of 11 nM.

With `COc1cccc(-c2cc3c(CN4CCc5cc(OC)c(OC)cc5C4)ccc(OC)c3o2)c1` the Ki [4] was 2550 nM, the Ki [5] was 804 nM and the Ki [6] was 19 nM.

`COc1cc2c(cc1OC)CN(Cc1ccc(OC)c3oc(-c4cccc(C(=O)NCCN(C)C)c4)cc13)CC2` gave a Ki [4] of 216 nM, a Ki [5] of 584 nM and a Ki [6] of 9.4 nM.

`COc1cc2c(cc1OC)CN(Cc1ccc(OC)c3oc(C(=O)NC4CN5CCC4CC5)cc13)CC2` (stereo not given) gave a Ki [4] of 42 nM, a Ki [5] of 857 nM and a Ki [6] of 0.8 nM.

With `COc1ccc(CN2CCc3ccccc3C2)c2cc(C(=O)NCCN(C)C)oc12` the inhibition [1] was 88%, the inhibition [2] was 94% and the inhibition [3] was 51%.

Molecule `CCCNC(=O)c1cc2c(CN3CCc4cc(OC)c(OC)cc4C3)ccc(OC)c2o1` has an inhibition [2] of 20%.

`COc1cc2c(cc1OC)CN(Cc1ccc(OC)c3oc(-c4ccccc4)cc13)CC2` showed a Ki [4] of 1740 nM, an AUC [7] of 11 ng·h/mL and a Ki [5] of 752 nM. For the same molecule, the Activity (Callithrix jacchus [8]) was “Active” and the Ki [6] was 20 nM.

For `COc1cc2c(cc1OC)CN(Cc1cc(OC)c3oc(C(=O)NCCN(C)C)cc3c1)CC2`, the inhibition [2] was 41%.

`COc1cc2c(cc1OC)CN(Cc1ccc(OC)c3oc(C(=O)N4CCC(N5CCCC5)CC4)cc13)CC2` gave a Ki [4] of 186 nM, a Ki [5] of 1360 nM and a Ki [6] of 3.5 nM.

With `CCCNC(=O)c1cccc(-c2cc3c(CN4CCc5cc(OC)c(OC)cc5C4)ccc(OC)c3o2)c1` the inhibition [2] was 48%.

`COc1cc2c(cc1OC)CN(Cc1ccc(OC)c3oc(-c4ccccc4C(F)(F)F)cc13)CC2` gave a Ki [4] of 304 nM, a Ki [5] of 949 nM and a Ki [6] of 18 nM.

For `COc1cc2c(cc1OC)CN(Cc1ccc(OC)c3oc(-c4cccc(C#N)c4)cc13)CC2`, the inhibition [2] was 42%.

In the case of `COc1cc2c(cc1OC)CN(Cc1ccc(OC)c3oc(-c4cccc(C(=O)NCCO)c4)cc13)CC2`, the inhibition [1] is reported as 29%, the inhibition [2] is reported as 54% and the inhibition [3] is reported as 31%.

With `COc1cc2c(cc1OC)CN(Cc1ccc(OC)c3oc(-c4cccnc4)cc13)CC2` the inhibition [2] was 62%.

With `COc1ccc(-c2cc3c(CN4CCc5cc(OC)c(OC)cc5C4)ccc(OC)c3o2)cc1` the inhibition [2] was 56%.

With `COc1cc2c(cc1OC)CN(Cc1ccc(OC)c3oc(-c4ccco4)cc13)CC2` the Ki [4] was 204 nM, the Ki [5] was 160 nM and the Ki [6] was 8 nM.

`COc1cc2c(cc1OC)CN(Cc1ccc(OC)c3oc(-c4cccc(F)c4)cc13)CC2` showed an inhibition [1] of 3%, an inhibition [2] of 52% and an inhibition [3] of 13%.

In the case of `COc1cc2c(cc1OC)CN(Cc1ccc(OC)c3oc(C(=O)NCCO)cc13)CC2`, the inhibition [2] is reported as 6%.

Molecule `COc1ccc(CN2CCN(c3ccccc3)CC2)c2cc(-c3ccccc3)oc12` has an inhibition [2] of 29%.

`COc1cc2c(cc1OC)CN(Cc1ccc(OC)c3oc(-c4ccncc4)cc13)CC2` showed an inhibition [2] of 35%.

For `COc1cc2c(cc1OC)CN(Cc1cc(OC)c3oc(-c4ccccc4)cc3c1)CC2`, the inhibition [2] was 19%.

For `COc1cc2c(cc1OC)CN(Cc1cnc(N)n3nc(-c4ccco4)nc13)CC2`, the Ki [4] was 400 nM, the Ki [5] was 370 nM and the Ki [6] was 19 nM.

Work on `COc1cc2c(cc1OC)CN(Cc1ccc(OC)c3oc(C(=O)NCCN(C)C)cc13)CC2` yielded a Ki [4] of 454 nM, an AUC [7] of 144 ng·h/mL and a Ki [5] of 2070 nM. The Activity (Callithrix jacchus [9]) was “inactive” and the Ki [6] was 9.4 nM.

`COc1cc2c(cc1OC)CN(Cc1ccc(OC)c3oc(-c4ccccc4OC)cc13)CC2` showed an inhibition [1] of 11%, an inhibition [2] of 35% and an inhibition [3] of 20%.

Work on `COc1ccc(CN2CCc3ccccc3C2)c2cc(-c3ccccc3)oc12` yielded an inhibition [1] of 30%, an inhibition [2] of 54% and an inhibition [3] of 51%.

In the case of `COc1cc2c(cc1OC)CN(Cc1ccc(OC)c3oc(C(=O)NCCNC(C)=O)cc13)CC2`, the inhibition [2] is reported as 9%.

For `COc1ccc(CN2CCN(c3ccccc3)CC2)c2cc(C(=O)NCCN(C)C)oc12`, the inhibition [1] was 80%, the inhibition [2] was 68% and the inhibition [3] was 33%.

`COc1cc2c(cc1OC)CN(Cc1ccc(OC)c3oc(-c4ccc(C(F)(F)F)cc4)cc13)CC2` showed an inhibition [2] of 18%.

Work on `COc1cc2c(cc1OC)CN(Cc1ccc3cc(-c4ccccc4)oc3c1OC)CC2` yielded an inhibition [2] of 39%.

For `COc1cc2c(cc1OC)CN(Cc1ccc(OC)c3oc(-c4ccc(F)cc4)cc13)CC2`, the inhibition [2] was 41%.
